Assays:
PI3Kalpha = molecular target: T1, PI3Kalpha (Homo sapiens, UniProt P42336); assay: HTRF PI3K biochemical assay, alpha isoform (selectivity versus delta); conditions: relative ratio PI3K-alpha IC50 value / PI3K-delta IC50 value
T1 construct: purchased Upstate; Millipore 14-602
Method in brief: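 Recombinant PI3Kα (0.5 nM) pre-incubated 15 min with compound, then reacted 1 h at room temperature with 5 μM PIP2 and 100 μM ATP. After EDTA stop, PIP3 measured by HTRF displacement of biotin-PIP3 from GST-GRP1 PH domain (665/620 nm). 10-point dose response; IC50 corrected using a PIP3 standard curve.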

PI3Kdelta = molecular target: T2, PI3Kdelta (Homo sapiens, UniProt O00329); assay: HTRF PI3K biochemical assay, delta isoform; conditions: 0.3 nM enzyme, 100 uM ATP, 5 uM PIP2, form screened (Neutral or TFA salt) given per compound
T2 construct: purchased Upstate; Millipore 14-604
Method in brief: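 PI3Kδ at 0.3 nM with 100 uM ATP and 5 uM PIP2, 10-point 3-fold dilutions, 15 min enzyme–compound pre-incubation, then 1 h reaction at room temperature. PIP3 formation detected by HTRF displacement of biotin-PIP3 from GST-GRP1-PH (665/620 nm ratio). IC50 corrected using a PIP3 standard curve.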

T2 sequence (O00329 whole entry, canonical isoform): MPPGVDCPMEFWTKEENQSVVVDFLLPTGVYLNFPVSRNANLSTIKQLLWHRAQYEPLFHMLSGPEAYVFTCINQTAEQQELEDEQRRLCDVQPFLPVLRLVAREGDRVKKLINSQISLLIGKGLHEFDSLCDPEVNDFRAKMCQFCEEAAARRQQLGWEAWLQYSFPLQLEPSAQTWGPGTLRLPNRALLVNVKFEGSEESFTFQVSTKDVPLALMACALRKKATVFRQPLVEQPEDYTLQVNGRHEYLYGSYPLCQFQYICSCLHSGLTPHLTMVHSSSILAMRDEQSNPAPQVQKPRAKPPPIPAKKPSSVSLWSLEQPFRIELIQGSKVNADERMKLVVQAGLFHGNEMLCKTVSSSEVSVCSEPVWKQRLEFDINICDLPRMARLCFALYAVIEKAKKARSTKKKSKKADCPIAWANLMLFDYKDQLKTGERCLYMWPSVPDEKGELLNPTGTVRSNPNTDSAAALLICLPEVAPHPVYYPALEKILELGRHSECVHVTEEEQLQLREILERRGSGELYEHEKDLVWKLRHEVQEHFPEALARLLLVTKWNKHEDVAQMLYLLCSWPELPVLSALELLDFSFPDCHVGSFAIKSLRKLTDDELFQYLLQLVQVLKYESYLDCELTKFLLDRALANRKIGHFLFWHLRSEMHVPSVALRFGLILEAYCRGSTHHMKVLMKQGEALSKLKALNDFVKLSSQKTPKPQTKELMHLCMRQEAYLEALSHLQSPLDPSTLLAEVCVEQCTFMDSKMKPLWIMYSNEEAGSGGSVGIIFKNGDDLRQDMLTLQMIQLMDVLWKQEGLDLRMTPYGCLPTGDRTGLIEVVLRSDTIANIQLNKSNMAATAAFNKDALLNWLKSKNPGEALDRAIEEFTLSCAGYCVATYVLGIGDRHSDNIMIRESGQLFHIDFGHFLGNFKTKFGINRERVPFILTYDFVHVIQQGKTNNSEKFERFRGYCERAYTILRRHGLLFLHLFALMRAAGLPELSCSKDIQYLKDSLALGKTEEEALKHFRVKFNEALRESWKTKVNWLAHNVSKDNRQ
T2 sequence (P27986 whole entry partner, canonical isoform): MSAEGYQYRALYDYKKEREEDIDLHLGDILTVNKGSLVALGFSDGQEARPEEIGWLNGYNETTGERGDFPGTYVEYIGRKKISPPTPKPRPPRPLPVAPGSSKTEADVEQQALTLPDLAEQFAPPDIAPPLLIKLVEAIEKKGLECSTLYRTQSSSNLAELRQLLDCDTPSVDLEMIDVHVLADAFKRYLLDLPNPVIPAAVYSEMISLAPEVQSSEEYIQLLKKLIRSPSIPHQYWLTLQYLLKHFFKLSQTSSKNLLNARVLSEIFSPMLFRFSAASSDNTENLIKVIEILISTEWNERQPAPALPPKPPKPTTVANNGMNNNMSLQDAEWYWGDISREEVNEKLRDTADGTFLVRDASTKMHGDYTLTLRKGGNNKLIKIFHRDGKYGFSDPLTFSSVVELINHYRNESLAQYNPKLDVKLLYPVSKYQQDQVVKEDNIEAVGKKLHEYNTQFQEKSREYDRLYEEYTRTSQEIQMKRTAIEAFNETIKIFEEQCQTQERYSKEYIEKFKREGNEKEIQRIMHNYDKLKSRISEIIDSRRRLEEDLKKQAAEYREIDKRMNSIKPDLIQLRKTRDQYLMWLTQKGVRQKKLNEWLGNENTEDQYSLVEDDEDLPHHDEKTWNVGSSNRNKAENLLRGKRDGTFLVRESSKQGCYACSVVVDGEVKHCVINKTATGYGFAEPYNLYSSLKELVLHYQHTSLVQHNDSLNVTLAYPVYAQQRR
T1 sequence (P42336 whole entry, canonical isoform): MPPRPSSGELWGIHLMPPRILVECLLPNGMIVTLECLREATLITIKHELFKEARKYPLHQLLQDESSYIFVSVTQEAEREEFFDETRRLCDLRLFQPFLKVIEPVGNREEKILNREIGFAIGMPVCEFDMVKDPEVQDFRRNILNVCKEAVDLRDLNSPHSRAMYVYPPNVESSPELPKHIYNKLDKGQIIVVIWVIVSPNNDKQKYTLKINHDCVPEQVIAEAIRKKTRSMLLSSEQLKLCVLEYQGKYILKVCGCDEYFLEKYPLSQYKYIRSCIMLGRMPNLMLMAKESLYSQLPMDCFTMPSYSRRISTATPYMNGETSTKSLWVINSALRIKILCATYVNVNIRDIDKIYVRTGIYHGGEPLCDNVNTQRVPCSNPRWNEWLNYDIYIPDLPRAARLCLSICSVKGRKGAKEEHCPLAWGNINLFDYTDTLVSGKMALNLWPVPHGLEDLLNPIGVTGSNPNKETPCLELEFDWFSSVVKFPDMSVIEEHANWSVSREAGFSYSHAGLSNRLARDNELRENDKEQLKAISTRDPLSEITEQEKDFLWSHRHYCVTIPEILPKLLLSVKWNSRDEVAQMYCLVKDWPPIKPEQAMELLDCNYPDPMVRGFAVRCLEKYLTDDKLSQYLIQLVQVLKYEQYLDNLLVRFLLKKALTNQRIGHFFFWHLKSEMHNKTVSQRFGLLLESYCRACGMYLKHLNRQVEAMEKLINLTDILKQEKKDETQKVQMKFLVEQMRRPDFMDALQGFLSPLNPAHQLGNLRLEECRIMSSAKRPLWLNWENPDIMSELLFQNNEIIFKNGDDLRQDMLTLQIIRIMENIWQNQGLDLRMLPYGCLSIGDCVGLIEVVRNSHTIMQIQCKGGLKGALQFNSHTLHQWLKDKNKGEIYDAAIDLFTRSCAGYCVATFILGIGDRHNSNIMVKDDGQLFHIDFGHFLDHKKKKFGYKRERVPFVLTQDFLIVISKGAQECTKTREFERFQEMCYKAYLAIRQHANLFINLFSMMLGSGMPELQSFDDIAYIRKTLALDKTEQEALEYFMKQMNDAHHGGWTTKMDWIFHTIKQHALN
T1 sequence (P27986 whole entry partner, canonical isoform): as the sequence (P27986 whole entry partner, canonical isoform) above

Row | Compound | Selectivity versus PI3Kalpha (PI3Kalpha) | IC50 (PI3Kdelta) [nM]
1 | CCn1c(-c2cnc(C)nc2)nc2c(NC3CCc4c(c(C(C)C)nn4C(=O)OC)C3)ncnc21 (single isomer, unassigned) [Compound 2-19, (S or R)-methyl 5-{[9-ethyl-8-(2-methylpyrimidin-5-yl)-9H-purin-6-yl]amino}-3-(1-methylethyl)-4,5,6,7-tetrahydro-1H-indazole-1-carboxylate] | >10 | 1
2 | CCn1c(-c2cnc(C)nc2)nc2c(NC3CCc4nn(C)c(C(C)C)c4C3)ncnc21 (single isomer, unassigned) [Compound 2-24, (S or R)-9-ethyl-N-[(5S)-2-methyl-3-(1-methylethyl)-4,5,6,7-tetrahydro-2H-indazol-5-yl]-8-(2-methylpyrimidin-5-yl)-9H-purin-6-amine] | >10 | 41
3 | CCn1c(-c2cnc(C)nc2)nc2c(NC3CCc4c(c(C(C)C)nn4C)C3)ncnc21 (single isomer, unassigned) [Compound 2-25, (S or R)-9-ethyl-N-[(5S)-1-methyl-3-(1-methylethyl)-4,5,6,7-tetrahydro-1H-indazol-5-yl]-8-(2-methylpyrimidin-5-yl)-9H-purin-6-amine] | >10 | 14
4 | CCn1c(-c2cnc(C)nc2)nc2c(NC3CCc4cnc(C5CC5)n4C3)ncnc21 (single isomer, unassigned) [Compound 3-1, (S or R)-N-[3-cyclopropyl-5,6,7,8-tetrahydroimidazo[1,5-a]pyridin-6-yl]-9-ethyl-8-(2-methylpyrimidin-5-yl)-9H-purin-6-amine] | >10 | 11
5 | CCn1c(-c2cnc(C)nc2)nc2c(NC3CCc4cnc(C(C)C)n4C3)ncnc21 (single isomer, unassigned) [Compound 3-2, (S or R)-9-ethyl-N-[3-(1-methylethyl)-5,6,7,8-tetrahydroimidazo[1,5-a]pyridin-6-yl)-8-(2-methylpyrimidin-5-yl)-9H-purin-6-amine] | >10 | 5.2
6 | CCn1c(-c2cnc(C)nc2)nc2c(NC3CCc4ncc(C5CC5)n4C3)ncnc21 (single isomer, unassigned) [Compound 4-1, (S or R)-N-(3-cyclopropyl 5,6,7,8-tetrahydroimidazo[1,2-a]pyridin-6-yl)-9-ethyl-8-(2-methylpyrimidin-5-yl)-9H-purin-6-amine] | >10 | 6.9
7 | CCn1c(-c2cnc(C)nc2)nc2c(NC3CCc4ncc(C5CC5)n4C3)ncnc21 (single isomer, unassigned) [Compound 4-2, (S or R)-N-(3-cyclopropyl-5,6,7,8-tetrahydroimidazo[1,2-a]pyridin-6-yl)-9-ethyl-8-(2-methylpyrimidin-5-yl)-9H-purin-6-amine] | >10 | 290
8 | CCn1c(-c2cnc(C)nc2)nc2c(NC3CCc4ncc(C(C)C)n4C3)ncnc21 (single isomer, unassigned) [Compound 4-3, (S or R)-9-ethyl-N-[3-(1-methylethyl)-5,6,7,8-tetrahydroimidazo[1,2-a]pyridin-6-yl]-8-(2-methylpyrimidin-5-yl)-9H-purin-6-amine] | >10 | 2.8
9 | CCn1c(-c2cnc(C)nc2)nc2c(NC3CCc4ncc(C(C)C)n4C3)ncnc21 (single isomer, unassigned) [Compound 4-4, (S or R)-9-ethyl-N-[3-(1-methylethyl)-5,6,7,8-tetrahydroimidazo[1,2-a]pyridin-6-yl]-8-(2-methylpyrimidin-5-yl)-9H-purin-6-amine] | >10 | 210
10 | CCn1c(-c2cnc(C)nc2)nc2c(NC3CCc4ncn(C5CC5)c4C3)ncnc21 (single isomer, unassigned) [Compound 5-1, (S or R)-N-(1-cyclopropyl-4,5,6,7-tetrahydro-1H-benzimidazol-6-yl)-9-ethyl-8-(2-methylpyrimidin-5-yl)-9H-purin-6-amine] | >10 | 5.5

Reference: patent US10100064B2, “Purine inhibitors of human phosphatidylinositol 3-kinase delta” (Merck Sharp & Dohme Corp., priority 2014, dated 2018)
